From patent US20220411759A1, “ENDOCRINE DIFFERENTIATION-INDUCING MOLECULE” (President and Fellows of Harvard College, priority 2019, published 2022)

Experiments:
[1] = system: HUES8 human embryonic stem cells; experiment: Flow cytometry of cell proportions during directed differentiation of hESCs into β cells; format: cell-based
Experimental: (§1) HUES8 ([…]) human embryonic stem cells and human induced pluripotent stem cells (hiPSCs) from line 1016 (person) were obtained from the Human Embryonic Stem Cell Facility and iPS Core Facility of the Harvard Stem Cell Institute. Cells were differentiated into beta like cells in suspension as described previously^37. Briefly, 150Xe^6 cells were suspended in 300 ml of supplemented mTeSR1 and grown in spinning flasks (70 rpm, 37° C., 5% CO2) for 48 hours prior to the beginning of a stepwise differentiation protocol:
Stage 4—5 days in S3 medium supplemented with KGF (50 ng/ml), Sant1 (0.25 μM) and retinoic acid (0.1 μM).
Stage 5—7 days in BE5 medium supplemented with Beta Cellulin (20 ng/ml). XXI (1 μM), Alk5ill(10 μM) and T3 (1 μM). Sant1 (0.25 μM) was added in the first three days, and retinoic acid was added at 0.1 μM in the first three days, then at 0.025 μM.
Stage 6—CMRLS medium supplemented with Alk5iII (10 μM) and T3 (1 μM).
In many of the experiments following cell collection for sc-RNAseq, the protocol was slightly modified to add Y-27632 (10 μM) at stage 3-5, and ActivinA (5 ng/ml) in stage 4. In some cases, an extra day at stage 4 was also added. For the presented functional and flow cytometry analysis in stage 6, CMRLS based media was replaced with S3 medium, without supplements.
(§2) Factors were tested in either 6-well plates placed on a rocker, or in Biott ABLE Bioreactors (Stemgent). IWR1-endo (Sigma-Aldrich) was used at 5 μM. XAV939 (Santa Cruz, SC-296704A) was used at 5 μM. Recombinant human BMP2/BMP7 (Thermo-Fisher) was used at […]. when added during stage 4, CHIR99021 was used at a concentration of […].
Differentiated cell clusters were dispersed into single-cell suspension by incubation in TrypLE Express at 37° C., quenched with PBS+2% FBS, fixed with 4% PFA for 30 min at 4° C., washed once in PBS, and resuspended in PBS+2% FBS. Staining was done in 96-well plates. Cells were incubated in blocking buffer (PBS+0.1% Triton X-100+5% donkey serum) at 4° C. for 30-60 min. Cells were then re-suspended in blocking buffer with primary antibodies and incubated at room temperature for 1 hour or at 4° C. overnight. Cells were washed twice in blocking buffer and incubated in blocking buffer with secondary antibodies at 4° C. for 1 hour. Cells were then washed three times in PBS+5% Donkey serum and analyzed using either the BD Accuri c6 flow cytometer or the LSR-II flow cytometer (BD Biosciences). Analysis of the results was performed using FlowJo software.

[2] = system: human induced pluripotent stem cells (hiPSCs) from line 1016; experiment: Flow cytometry of cell proportions during directed differentiation of hiPSC-1016; format: cell-based; details: stage 5
Experimental: as §1, §2
Differentiated cell clusters were dispersed into single-cell suspension by incubation in TrypLE Express at 37° C., quenched with PBS+2% FBS, fixed with 4% PFA for 30 min at 4° C., washed once in PBS, and resuspended in PBS+2% FBS. Staining was done in 96-well plates. Cells were incubated in blocking buffer (PBS+0.1% Triton X-100+5% donkey serum) at 4° C. for 30-60 min. […] Cells were then washed three times in PBS+5% Donkey serum and analyzed using either the BD Accuri c6 flow cytometer or the LSR-II flow cytometer (BD Biosciences). […]

[3] = system: differentiating hESC clusters; experiment: Nanostring mRNA expression of endocrine, hormone and progenitor markers in differentiating clusters; format: cell-based, human; details: treatment during both stages 4 and 5; relative to control
Experimental: as §2
Cells were collected for RNA extraction in RLT Lysis Buffer (Qiagen) and frozen at −80° C. RNA was extracted using the RNeasy Mini Kit (Qiagen), according the manufacturer's instructions—including DNA digestion, and 100 ng of RNA was used for each reaction. Nanostring set up was performed according to the protocol for the nCounter XT Gene Expression Assay. Data was analyzed in the nSolver 2.5 Software. All genes were normalized to housekeeping genes (ITCH, RPL15, RPL19, TCEB1, UBE2D3). Analysis of changes in gene expression of markers for endocrine and progenitor cells was done using R.

[4] = system: in vitro generated β cells; experiment: Glucose stimulated insulin secretion (GSIS) of stage 6 cells; format: cell-based, human
Experimental: Differentiated cells were washed twice in Krebs buffer (Krb) containing 2.8mM glucose, and then distributed into 24-well plates containing Millicell Cell culture inserts for easy transfer between conditions. Each well received 0.5 ml buffer with approximately 10^6 cells. After fasting in 2.8 mM glucose for 1 hour in 37° C., the analysis of the cells' response to changing glucose levels was performed by a series of 1 hour incubations in 37° C., in the following order: 1) 2.8 mM (low) glucose. 2) 20 mM (high) glucose. 3) brief wash in 2.8 mM glucose. 4) 1 hour incubation in 2.8 mM glucose. 5) 20 mM glucose. 6) 2.8 mM glucose with 30 mM KCL. At the end of each step (excluding the wash), the incubation buffer was collected and the amount of insulin secreted during the hour's incubation was determined using human insulin ELISA kit (ALPCO diagnostics; 80-INSHUU-E01.1). Clusters were then dispersed into single cells using TrypLE Express (Life Technologies), and cell number was counted automatically by a Vi-Cell (Beckman Coulter).

[5] = system: differentiating hESC clusters; experiment: Cell concentration in differentiation batches during stage 6; format: cell-based, human; details: treatment during stage 5, vs control
Experimental: The relative changes in gene expression relative to control conditions are presented in log values, for two independent experiments. FIG. 9E provides cell concentration in the differentiation batches analyzed in FIG. 4H. […] Bars show the average±S.E. n, from left to right: 8 (7 for IWR), 6, 8, 7, 6. […] The bars show geometric mean±S.E. of the fold change in insulin secretion following the transition from low (2.8 mM) to high (20 mM) glucose levels. FIG. 9F provides fold change in insulin secretion after one stimulation with high glucose. From left to right: n=5,6,6,3; 2-way ANOVA on log(Fold insulin secretion): p-value=0.83 and 0.16 for differences caused by the treatment or the day of analysis, respectively. […]
Differentiated cells were washed twice in Krebs buffer (Krb) containing 2.8mM glucose, and then distributed into 24-well plates containing Millicell Cell culture inserts for easy transfer between conditions. […] At the end of each step (excluding the wash), the incubation buffer was collected and the amount of insulin secreted during the hour's incubation was determined using human insulin ELISA kit (ALPCO diagnostics; 80-INSHUU-E01.1). Clusters were then dispersed into single cells using TrypLE Express (Life Technologies), and cell number was counted automatically by a Vi-Cell (Beckman Coulter).

[6] = system: differentiating hESC clusters; details: Activin A and Y-27632 given together during stage 4; cited from earlier work
[7] = factor added during stage 4, flow cytometry at end of stage 4, vs control
[8] = XXI removed from the media during stage 5, flow cytometry at end of stage 5, vs control with XXI

Molecule: Cc1c[nH]c(-c2cnc(NCCNc3ccc(C#N)cn3)nc2-c2ccc(Cl)cc2Cl)n1 [CHIR99021]
- number / proportion of CHGA+ endocrine cells [1, 7]: decreased

Molecule: O=C(Nc1cccc2cccnc12)c1ccc(N2C(=O)[C@@H]3[C@H](C2=O)[C@@H]2C=C[C@H]3C2)cc1 [IWR1-endo]
- number / proportion of CHGA+ endocrine cells [1, 7]: significantly raised
- number / proportion of PDX1+/NKX6.1+ progenitors [1, 7]: reduced
- overall yield of in vitro generated β cells ([1]; treatment during stage 5, concluded from β cell proportion and cell numbers): increases
- increase in proportion of C-PEP+/NKX6.1+ β cells, on average, relative to controls ([1]; treatment during stage 5, flow cytometry at end of stage 5): more than 50%
- proportion of CHGA+ endocrine cells ([1]; treatment during stage 5, flow cytometry at end of stage 5, compared with the stage 4 effect): even higher relative increase
- proportion of hiPSC-1016 derived CHGA+ cells [2]: increases
- expression of endocrine markers [3]: increased expression
- expression of progenitor markers [3]: downregulated
- insulin secretion in response to high glucose levels (first stimulation) ([4]; treatment during stage 5, 2.8 mM to 20 mM glucose): maintain their ability to secrete insulin
- insulin release on second stimulation with high glucose, compared to controls ([4]; treatment during stage 5, consecutive stimulations, 20 mM glucose): release less insulin in the second challenge
- overall cell numbers / cell concentration during stage 6 [5]: slightly increased
- overall cell numbers / cell concentration during stage 6 ([5]; listed as IWR): slightly higher

Molecule: C[C@H](NC(=O)Cc1cc(F)cc(F)c1)C(=O)N[C@H]1N=C(c2ccccc2)c2ccccc2N(C)C1=O [XXI]
- number of CPEP+NKX6.1+ β cells [1, 8]: dramatically reduced
- number of GLP2+ α cells [1, 8]: did not significantly affect

Molecule: C[C@@H](N)[C@H]1CC[C@H](C(=O)Nc2ccncc2)CC1 [Y-27632]
- appearance of buds on the clusters' surface [6]: induces

B1: Activin A: protein factor (R&D Systems) added to differentiation media (protein, UniProt P08476 311-426, looked up)
Inhibin beta A chain: GLECDGKVNICCKKQFFVSFKDIGWNDWIIAPSGYHANYCEGECPSHIAGTSGSSLSFHSTVINHYRMRGHSPFANLKSCCVPTKLRPMSMLYYDDGQNIIKKDIQNMIVEECGCS
modifications: Inhibin beta A chain
notes: protein factor (R&D Systems) added to differentiation media
- appearance of buds on the clusters' surface [6]: induces
